Consider four compounds from patent US11034650B2, “Compounds useful for treating a Mannheimia haemolytica or Histophilus somni infection” (Intervet Inc., priority 2016, dated 2021).

In brackets after ≈: the same amount, converted by molar mass.

The subject of the first assay is Mannheimia haemolytica MH 13093 (XB0472-6014.1, BRD field isolate). Put plainly: MIC, broth-microdilution (CLSI VET01-A4), strain MH 13093. The class given is cell-based. To be noted: Mannheimia haemolytica strain MH 13093, broth-microdilution; unit assumed. Put shortly:
(§1)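 MIC recorded as the lowest drug level giving no growth visible to the naked eye, from two-fold serial dilutions. Interpretation followed VET01-S3.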
Background: Broth dilution looks for growth in wells or tubes with falling amounts of substance.
Turning to `CSC(C)(C)[C@H](NC(=O)c1ccc(C#Cc2ccc(CNCc3ncccn3)s2)cc1)C(=O)NO` [Compound 366], the MIC MH 13093 came out at 1.6 µg/mL (≈ 3.14 µM).
Same read-out and setting: in the case of `CC(C)(O)[C@H](NC(=O)c1ccc(C#Cc2ccc(CNC3CCCC3)cc2)cc1)C(=O)NO` [Compound 227] it was 12.5 µg/mL (≈ 27.8 µM); in that of `CC[C@H](C)[C@H](NC(=O)c1ccc(C#Cc2ccc(CNC(C)C)cc2)cc1)C(=O)NO` [Compound 141], 12.5 µg/mL (≈ 29.7 µM); in that of `CC(C)(O)[C@H](NC(=O)c1ccc(C#Cc2ccc(CNCc3ccco3)nc2)cc1)C(=O)NO` [Compound 332], 0.8 µg/mL (≈ 1.73 µM).

A further assay deals with Pasteurella multocida PM 6267 (P 2225 (L386), reference strain, mouse infection strain). Put plainly: MIC, broth-microdilution (CLSI VET01-A4), strain PM 6267. The class given is cell-based. The following applies: Pasteurella multocida strain PM 6267, broth-microdilution; unit assumed. Put shortly:
as §1
On to `CSC(C)(C)[C@H](NC(=O)c1ccc(C#Cc2ccc(CNCc3ncccn3)s2)cc1)C(=O)NO` [Compound 366], for which the MIC PM 6267 came out at 0.4 µg/mL (≈ 0.785 µM).
Still for that read-out and setting: the result for `CC(C)(O)[C@H](NC(=O)c1ccc(C#Cc2ccc(CNC3CCCC3)cc2)cc1)C(=O)NO` [Compound 227] reads 0.4 µg/mL (≈ 0.89 µM); that for `CC[C@H](C)[C@H](NC(=O)c1ccc(C#Cc2ccc(CNC(C)C)cc2)cc1)C(=O)NO` [Compound 141], 1.6 µg/mL (≈ 3.8 µM); that for `CC(C)(O)[C@H](NC(=O)c1ccc(C#Cc2ccc(CNCc3ccco3)nc2)cc1)C(=O)NO` [Compound 332], 0.4 µg/mL (≈ 0.865 µM).

The subject of the next assay is Mannheimia haemolytica MH 12587 (1071, BRD field isolate, macrolide-resistance: erm+, E+). Put plainly: MIC, broth-microdilution (CLSI VET01-A4), strain MH 12587. The class given is cell-based. The following applies: Mannheimia haemolytica strain MH 12587, broth-microdilution; unit assumed. Put shortly: as §1
Consider `CSC(C)(C)[C@H](NC(=O)c1ccc(C#Cc2ccc(CNCc3ncccn3)s2)cc1)C(=O)NO` [Compound 366], for which the MIC MH 12587 is 1.6 µg/mL (≈ 3.14 µM).
As to `CC(C)(O)[C@H](NC(=O)c1ccc(C#Cc2ccc(CNC3CCCC3)cc2)cc1)C(=O)NO` [Compound 227], the MIC MH 12587 worked out at 25 µg/mL (≈ 55.6 µM).
On the same count and under the same terms, the result for `CC[C@H](C)[C@H](NC(=O)c1ccc(C#Cc2ccc(CNC(C)C)cc2)cc1)C(=O)NO` [Compound 141] reads 12.5 µg/mL (≈ 29.7 µM).
The same measure, in the same setting: the result for `CC(C)(O)[C@H](NC(=O)c1ccc(C#Cc2ccc(CNCc3ccco3)nc2)cc1)C(=O)NO` [Compound 332] reads 1.6 µg/mL (≈ 3.46 µM).

The test system of another assay is Mannheimia haemolytica MH 13065 (XB0446-6003.9, BRD field isolate). Put plainly: MIC, broth-microdilution (CLSI VET01-A4), strain MH 13065. The following applies: Mannheimia haemolytica strain MH 13065, broth-microdilution; unit assumed. It counts as cell-based. Put shortly: as §1
Compound `CSC(C)(C)[C@H](NC(=O)c1ccc(C#Cc2ccc(CNCc3ncccn3)s2)cc1)C(=O)NO` [Compound 366] gave an MIC MH 13065 of 0.8 µg/mL (≈ 1.57 µM).
Same read-out and setting: the result for `CC(C)(O)[C@H](NC(=O)c1ccc(C#Cc2ccc(CNC3CCCC3)cc2)cc1)C(=O)NO` [Compound 227] reads 6.3 µg/mL (≈ 14 µM); that for `CC[C@H](C)[C@H](NC(=O)c1ccc(C#Cc2ccc(CNC(C)C)cc2)cc1)C(=O)NO` [Compound 141], 6.3 µg/mL (≈ 14.9 µM).
Still for that read-out and setting: in the case of `CC(C)(O)[C@H](NC(=O)c1ccc(C#Cc2ccc(CNCc3ccco3)nc2)cc1)C(=O)NO` [Compound 332] it was 0.8 µg/mL (≈ 1.73 µM).

For a further assay, the system named is Mannheimia haemolytica MH 6357 (M7/2, reference strain, cattle infection strain). Nature of the assay: MIC, broth-microdilution (CLSI VET01-A4), strain MH 6357. The class given is cell-based. To be noted: Mannheimia haemolytica strain MH 6357, broth-microdilution; unit assumed. The method in brief: as §1
The compound `CSC(C)(C)[C@H](NC(=O)c1ccc(C#Cc2ccc(CNCc3ncccn3)s2)cc1)C(=O)NO` [Compound 366] yielded an MIC MH 6357 of 0.8 µg/mL (≈ 1.57 µM).
The same measure, in the same setting: in the case of `CC(C)(O)[C@H](NC(=O)c1ccc(C#Cc2ccc(CNC3CCCC3)cc2)cc1)C(=O)NO` [Compound 227] it was 12.5 µg/mL (≈ 27.8 µM); in that of `CC[C@H](C)[C@H](NC(=O)c1ccc(C#Cc2ccc(CNC(C)C)cc2)cc1)C(=O)NO` [Compound 141], 6.3 µg/mL (≈ 14.9 µM); in that of `CC(C)(O)[C@H](NC(=O)c1ccc(C#Cc2ccc(CNCc3ccco3)nc2)cc1)C(=O)NO` [Compound 332], 0.4 µg/mL (≈ 0.865 µM).

The subject of the next assay is Pasteurella multocida PM 6391 (ATCC 43137, reference strain). Nature of the assay: MIC, broth-microdilution (CLSI VET01-A4), strain PM 6391. The class given is cell-based. The following applies: Pasteurella multocida strain PM 6391, broth-microdilution; unit assumed. The method in brief:
as §1
The compound `CSC(C)(C)[C@H](NC(=O)c1ccc(C#Cc2ccc(CNCc3ncccn3)s2)cc1)C(=O)NO` [Compound 366] yielded an MIC PM 6391 of 0.4 µg/mL (≈ 0.785 µM).
On to `CC(C)(O)[C@H](NC(=O)c1ccc(C#Cc2ccc(CNC3CCCC3)cc2)cc1)C(=O)NO` [Compound 227], for which the MIC PM 6391 amounted to 0.8 µg/mL (≈ 1.78 µM).
Still for that read-out and setting: the result for `CC[C@H](C)[C@H](NC(=O)c1ccc(C#Cc2ccc(CNC(C)C)cc2)cc1)C(=O)NO` [Compound 141] reads 3.1 µg/mL (≈ 7.35 µM); that for `CC(C)(O)[C@H](NC(=O)c1ccc(C#Cc2ccc(CNCc3ccco3)nc2)cc1)C(=O)NO` [Compound 332], 0.4 µg/mL (≈ 0.865 µM).

In a further assay the test system is Mannheimia haemolytica MH 6374 (ATCC 33396, reference strain). Nature of the assay: MIC, broth-microdilution (CLSI VET01-A4), strain MH 6374. The class given is cell-based. To be noted: Mannheimia haemolytica strain MH 6374, broth-microdilution; unit assumed. The method in brief: as §1
Compound `CSC(C)(C)[C@H](NC(=O)c1ccc(C#Cc2ccc(CNCc3ncccn3)s2)cc1)C(=O)NO` [Compound 366] gave an MIC MH 6374 of 0.8 µg/mL (≈ 1.57 µM).
The compound `CC(C)(O)[C@H](NC(=O)c1ccc(C#Cc2ccc(CNC3CCCC3)cc2)cc1)C(=O)NO` [Compound 227] yielded an MIC MH 6374 of 12.5 µg/mL (≈ 27.8 µM).
Still for that read-out and setting: the result for `CC[C@H](C)[C@H](NC(=O)c1ccc(C#Cc2ccc(CNC(C)C)cc2)cc1)C(=O)NO` [Compound 141] reads 12.5 µg/mL (≈ 29.7 µM).
Compound `CC(C)(O)[C@H](NC(=O)c1ccc(C#Cc2ccc(CNCc3ccco3)nc2)cc1)C(=O)NO` [Compound 332] gave an MIC MH 6374 of 0.4 µg/mL (≈ 0.865 µM).

The next assay concerns Pasteurella multocida PM 10775 (080130003051, BRD field isolate). Put plainly: MIC, broth-microdilution (CLSI VET01-A4), strain PM 10775. The class given is cell-based. To be noted: Pasteurella multocida strain PM 10775, broth-microdilution; unit assumed. The method in brief:
as §1
`CSC(C)(C)[C@H](NC(=O)c1ccc(C#Cc2ccc(CNCc3ncccn3)s2)cc1)C(=O)NO` [Compound 366]: the MIC PM 10775 is ≤ 0.1 µg/mL.
Same read-out and setting: the result for `CC(C)(O)[C@H](NC(=O)c1ccc(C#Cc2ccc(CNC3CCCC3)cc2)cc1)C(=O)NO` [Compound 227] reads 0.2 µg/mL (≈ 0.445 µM); that for `CC[C@H](C)[C@H](NC(=O)c1ccc(C#Cc2ccc(CNC(C)C)cc2)cc1)C(=O)NO` [Compound 141], 0.2 µg/mL (≈ 0.474 µM); that for `CC(C)(O)[C@H](NC(=O)c1ccc(C#Cc2ccc(CNCc3ccco3)nc2)cc1)C(=O)NO` [Compound 332], ≤ 0.1 µg/mL.

A further assay concerns Pasteurella multocida PM 12080 (IV102277-0093, BRD field isolate). Nature of the assay: MIC, broth-microdilution (CLSI VET01-A4), strain PM 12080. The class given is cell-based. The following applies: Pasteurella multocida strain PM 12080, broth-microdilution; unit assumed. Put shortly:
as §1
The compound `CSC(C)(C)[C@H](NC(=O)c1ccc(C#Cc2ccc(CNCc3ncccn3)s2)cc1)C(=O)NO` [Compound 366] yielded an MIC PM 12080 of 0.2 µg/mL (≈ 0.392 µM).
Same read-out and setting: in the case of `CC(C)(O)[C@H](NC(=O)c1ccc(C#Cc2ccc(CNC3CCCC3)cc2)cc1)C(=O)NO` [Compound 227] it was 0.8 µg/mL (≈ 1.78 µM).
Same read-out and setting: in the case of `CC[C@H](C)[C@H](NC(=O)c1ccc(C#Cc2ccc(CNC(C)C)cc2)cc1)C(=O)NO` [Compound 141] it was 3.1 µg/mL (≈ 7.35 µM).
On to `CC(C)(O)[C@H](NC(=O)c1ccc(C#Cc2ccc(CNCc3ccco3)nc2)cc1)C(=O)NO` [Compound 332], for which the MIC PM 12080 was 0.2 µg/mL (≈ 0.432 µM).

The test system of another assay is Mannheimia haemolytica MH 10720 (154, BRD field isolate). Put plainly: MIC, broth-microdilution (CLSI VET01-A4), strain MH 10720. The class given is cell-based. To be noted: Mannheimia haemolytica strain MH 10720, broth-microdilution; unit assumed. The method in brief:
as §1
Compound `CSC(C)(C)[C@H](NC(=O)c1ccc(C#Cc2ccc(CNCc3ncccn3)s2)cc1)C(=O)NO` [Compound 366] returned an MIC MH 10720 of 0.2 µg/mL (≈ 0.392 µM).
The same measure, in the same setting: in the case of `CC(C)(O)[C@H](NC(=O)c1ccc(C#Cc2ccc(CNC3CCCC3)cc2)cc1)C(=O)NO` [Compound 227] it was 1.6 µg/mL (≈ 3.56 µM); in that of `CC[C@H](C)[C@H](NC(=O)c1ccc(C#Cc2ccc(CNC(C)C)cc2)cc1)C(=O)NO` [Compound 141], 1.6 µg/mL (≈ 3.8 µM).
Still for that read-out and setting: in the case of `CC(C)(O)[C@H](NC(=O)c1ccc(C#Cc2ccc(CNCc3ccco3)nc2)cc1)C(=O)NO` [Compound 332] it was ≤ 0.1 µg/mL.
